Test results taken from patent US10858423B2, “Composition for the treatment of IGF-1R expressing cancer” (PIERRE FABRE MEDICAMENT, priority 2015, dated 2020).
Like-named read-outs stand apart in the source and are kept apart here. Where a SMILES comes first, the peptide text is derived from it. [ ]: non-standard residue; d: D form. The star is where a group is joined. Dolaproine = CO[C@@H]([C@@H]1CCCN1)[C@@H](C)C(=O)O; Dil = CC[C@H](C)[C@H](NC)[C@@H](CC(=O)O)OC; X2 = CNc1ccc(CCN(C)[C@H](C(=O)*)C(C)C)cc1; X3 = CC(C)C(C(=O)*)N(C)CCc1ccc(C(=O)O)cc1; X1 = CC(C)[C@@H](C(=O)*)N(C)Cc1cccc(N)c1

How the values were obtained:
MDA-MB-231 cells = assay: ATPlite antiproliferative assay, MDA-MB-231; format: cell-based; settings: Homo sapiens
Procedure: (§1) A549 (Non Small Cell Lung Cancer—ATCC CCL-185) and MDA-MB-231 (breast adenocarcinoma—ATCC HTB-26) cells were cultured in Minimum Essential Medium Eagle (MEM) with 5% fetal calf serum (FCS) and Dulbecco's modified Eagle Medium (DMEM) with 10% FCS respectively. MCF7 (breast ductal carcinoma—ATCC HTB-22) and SN-12C (kidney carcinoma—ATCC) cells were maintained in RPMI1640 medium (without phenol red for MCF7 cells) containing 10% FCS. All the media were supplemented with fungizone (1.25 μg/mL) and penicillin-streptomycin (100 U/100 μg/mL). Cells were cultured under standard conditions in an incubator at 37° C., 5% CO2 and 95% atmospheric humidity.
(§2) Selected drugs were investigated for their antiproliferative activity using an ATPlite proliferation assay (Perkin Elmer, Villebon sur Yvette, France) on a comprehensive panel of 4 cell lines. Cells were seeded in 96 well plates (10^3 cells/well for A549, 2.10^3 for MCF7, MDA-MB-231 and SN12C) at day 0 at a concentration to ensure cells remained in logarithmic cell growth phase throughout the 72 h drug treatment period. After a 24 h incubation period, all the cells were treated with serial dilutions of the tested compounds (11 μL of a 10× solution in 1% DMSO—6 wells/condition). To avoid adherence of the compounds onto the tips, tips were changed between two consecutive dilutions. Cells were then placed in 37° C., 5% CO2 incubator. On day 4, cell viability was evaluated by dosing the ATP released by viable cells. The number of viable cells was analyzed in comparison with the number of solvent treated cells. The EC50 values were determined with curve fitting analysis (non linear regression model with a sigmoidal dose response, variable hill slope coefficient), performed with the algorithm provided by the GraphPad Software (GraphPad Software Inc., CA, USA).

A549 cells = assay: ATPlite antiproliferative assay, A549; format: cell-based; settings: Homo sapiens
Procedure: as §1, §2

SN-12C cells = assay: ATPlite antiproliferative assay, SN12C; format: cell-based; settings: Homo sapiens
Procedure: as §1
(§3) Selected drugs were investigated for their antiproliferative activity using an ATPlite proliferation assay (Perkin Elmer, Villebon sur Yvette, France) on a comprehensive panel of 4 cell lines. […] On day 4, cell viability was evaluated by dosing the ATP released by viable cells. The number of viable cells was analyzed in comparison with the number of solvent treated cells. The EC50 values were determined with curve fitting analysis (non linear regression model with a sigmoidal dose response, variable hill slope coefficient), performed with the algorithm provided by the GraphPad Software (GraphPad Software Inc., CA, USA).

MCF7 cells = assay: ATPlite antiproliferative assay, MCF7; format: cell-based; settings: Homo sapiens
Procedure: as §1, §3

lysosome functions = assay: inhibition of antibody degradation by lysosome inhibitor; format: cell-based; settings: cells with 10 μg/ml Ab, 2 h at 37° C.
Procedure: In order to confirm that second IGF-1R antibodies Ab reached the lysosome were they are degraded, cells were treated or not with bafilomycine A1, a potent inhibitor of lysosome functions. Cells were then incubated with 10 μg/ml of Ab to be tested at 4° C., washed and incubated for 2 h at 37° C. The internalized Ab was detected after cell permeabilisation using a secondary anti-mouse IgG-Alexa 488 Ab.

IGF-1R = IGF-1R (Homo sapiens, UniProt P08069); settings: background statement; cited from earlier work
[1] = MDA-MB-231, comparative examples table, read-out: EC50 (M) MDA-MB-231
[2] = A549, comparative examples table, read-out: EC50 (M) A549

Row | Molecule | EC50 (MDA-MB-231 cells; [1]) | EC50 (MDA-MB-231 cells; MDA-MB-231, read-out: EC50) | EC50 (A549 cells; [2]) | also measured
1 | CC[C@H](C)[C@@H]([C@@H](CC(=O)N1CCC[C@H]1[C@H](OC)[C@@H](C)C(=O)N[C@@H](Cc1ccccc1)C(=O)OC)OC)N(C)C(=O)[C@@H](NC(=O)[C@H](C(C)C)N(C)CCc1ccc(NC)cc1)C(C)C [Compound 12, methyl (S)-2-((2R,3R)-3-((S)-1-((3R,4S,5S)-4-((S)—N,3-dimethyl-2-((S)-3-methyl-2-(methyl(4-(methylamino)phenethyl)amino)butanamido)butanamido)-3-methoxy-5-methylheptanoyl)pyrrolidin-2-yl)-3-methoxy-2-methylpropanamido)-3-phenylpropanoate, trifluoroacetic Acid] (X2-V[Dil][Dolaproine]F-OMe) | 5.8e-10 M | 5.8e-10 M | 1.48e-10 M | 
2 | CC[C@H](C)[C@@H]([C@@H](CC(=O)N1CCC[C@H]1[C@H](OC)[C@@H](C)C(=O)N[C@@H](Cc1ccccc1)C(=O)O)OC)N(C)C(=O)[C@@H](NC(=O)[C@H](C(C)C)N(C)CCc1ccc(NC)cc1)C(C)C [Compound 13, (S)-2-((2R,3R)-3-((S)-1-((3R,4S,5S)-4-((S)—N,3-dimethyl-2-((S)-3-methyl-2-(methyl(4-(methylamino)phenethyl)amino)butanamido)butanamido)-3-methoxy-5-methylheptanoyl)pyrrolidin-2-yl)-3-methoxy-2-methylpropanamido)-3-phenylpropanoic acid, trifluoroacetic Acid] (X2-V[Dil][Dolaproine]F-OH) | 7.95e-08 M | 7.95e-08 M | 2.71e-08 M | 
3 | CC[C@H](C)[C@@H]([C@@H](CC(=O)N1CCC[C@H]1[C@H](OC)[C@@H](C)C(=O)N[C@@H](Cc1ccccc1)C(=O)OC)OC)N(C)C(=O)[C@@H](NC(=O)[C@H](C(C)C)N(C)Cc1cccc(N)c1)C(C)C [Compound 15, methyl (S)-2-((2R,3R)-3-((S)-1-((3R,4S,5S)-4-((S)-2-((S)-2-((3-aminobenzyl) (methyl)amino)-3-methylbutanamido)-N,3-dimethylbutanamido)-3-methoxy-5-methylheptanoyl)pyrrolidin-2-yl)-3-methoxy-2-methylpropanamido)-3-phenylpropanoate, trifluoroacetic Acid] (X1-V[Dil][Dolaproine]F-OMe) | 1.7e-10 M | 1.7e-10 M | 1.45e-10 M | EC50 (SN-12C cells; 72 h drug treatment, read-out: EC50 (M) SN12C): 2.18e-10 M; EC50 (SN-12C cells; text bound, read-out: EC50): < 1e-07 M; EC50 (MCF7 cells; 72 h drug treatment, read-out: EC50 (M) MCF-7): 7.15e-10 M; EC50 (MCF7 cells; MCF-7, text bound, read-out: EC50): < 1e-07 M; EC50 (MDA-MB-231 cells; MDA-MB-231, 72 h, 72 h drug treatment, read-out: EC50 (M) MDA-MB-231): 1.7e-10 M; EC50 (MDA-MB-231 cells; MDA-MB-231, MDA-MB-231, text bound, read-out: EC50): < 1e-07 M; EC50 (A549 cells; A549, 72 h drug treatment, read-out: EC50 (M) A549): 1.45e-10 M; EC50 (A549 cells; A549, text bound, read-out: EC50): < 1e-07 M
4 | CO/C1=C\C(C)=C\[C@@H](C)[C@@H](O)[C@@H](C)C/C(C)=C/C=C/[C@H](OC)[C@@H]([C@@H](C)[C@@H](O)[C@H](C)[C@@]2(O)C[C@@H](O)[C@H](C)[C@@H](C(C)C)O2)OC1=O [bafilomycine A1] |  |  |  | effect on degradation of intracellular Ab (lysosome functions): prevented the degradation of intracellular Ab
5 | CC[C@H](C)[C@@H]([C@@H](CC(=O)N1CCC[C@H]1[C@H](OC)[C@@H](C)C(=O)N[C@@H](Cc1ccccc1)C(=O)OC)OC)N(C)C(=O)[C@@H](NC(=O)C(C(C)C)N(C)CCc1ccc(C(=O)O)cc1)C(C)C (some centres unmarked) [compound 1, reference compound] (X3-V[Dil][Dolaproine]F-OMe) | 2.29e-09 M |  | 3.76e-09 M | 
6 | CC[C@H](C)[C@@H]([C@@H](CC(=O)N1CCC[C@H]1[C@H](OC)[C@@H](C)C(=O)N[C@@H](Cc1ccccc1)C(=O)O)OC)N(C)C(=O)[C@@H](NC(=O)C(C(C)C)N(C)CCc1ccc(C(=O)O)cc1)C(C)C (some centres unmarked) [compound 2, reference compound] (X3-V[Dil][Dolaproine]F-OH) | 9.75e-07 M |  | 4.03e-07 M | 
7 | IGF2: insulin-like growth factor 2, ligand of IGF-1R |  |  |  | Kd (IGF-1R): ~1 nM
